# Laboratory results reported in ChEMBL document CHEMBL5620347, “Discovery of thiohydantoin based antagonists of androgen receptor with efficient degradation for the treatment of prostate cancer” (Eur J Med Chem, 2023).
# How the values were obtained:
# [1] = Toxicity in BALB/c mouse assessed as effect on serum AST level at 30 mg/kg, ip measured after 3 days by biochemical analysis; assay type: organism-based; settings: in vivo, 72 h, time 3 day
# [2] = Toxicity in BALB/c mouse assessed as effect on serum uric acid level at 30 mg/kg, ip measured after 3 days by biochemical analysis; assay type: organism-based; settings: in vivo, 72 h, time 3 day
# [3] = Clearance in Sprague-Dawley rat at 5 mg/kg, iv measured upto 1440 mins by LC-MS/MS analysis; assay type: ADME, organism-based; settings: in vivo
# [4] = Cmax in Sprague-Dawley rat at 20 mg/kg, po measured upto 1440 mins by LC-MS/MS analysis; assay type: ADME, organism-based; settings: in vivo
# [5] = Clearance in Sprague-Dawley rat at 20 mg/kg, ip measured upto 1440 mins by LC-MS/MS analysis; assay type: ADME, organism-based; settings: in vivo
# [6] = Toxicity in BALB/c mouse assessed as appearance of lesions in liver at 30 mg/kg, ip measured after 3 days by H and E staining based analysis; assay type: organism-based; settings: in vivo, 72 h, time 3 day
# [7] = AUC (0 to infinity) in Sprague-Dawley rat at 20 mg/kg, po measured upto 1440 mins by LC-MS/MS analysis; assay type: ADME, organism-based; settings: in vivo, 24 h
# [8] = Toxicity in BALB/c nude mouse xenografted with human LNCaP cells assessed as reduction in body weight at 30 mg/kg, ip measured every 2 days for 28 days; assay type: organism-based; settings: in vivo, 672 h, time 28 day
# [9] = Toxicity in BALB/c mouse assessed as appearance of lesions in kidney at 30 mg/kg, ip measured after 3 days by H and E staining based analysis; assay type: organism-based; settings: in vivo, 72 h, time 3 day
# [10] = AUC (0 to infinity) in Sprague-Dawley rat at 5 mg/kg, iv measured upto 1440 mins by LC-MS/MS analysis; assay type: ADME, organism-based; settings: in vivo
# [11] = Toxicity in BALB/c mouse assessed as effect on serum ALT level at 30 mg/kg, ip measured after 3 days by biochemical analysis; assay type: organism-based; settings: in vivo, 72 h, time 3 day
# [12] = Toxicity in BALB/c mouse assessed as appearance of lesions in lung at 30 mg/kg, ip measured after 3 days by H and E staining based analysis; assay type: organism-based; settings: in vivo, 72 h, time 3 day
# [13] = Clearance in Sprague-Dawley rat at 20 mg/kg, po measured upto 1440 mins by LC-MS/MS analysis; assay type: ADME, organism-based; settings: in vivo, 24 h
# [14] = Half life in Sprague-Dawley rat at 20 mg/kg, po measured upto 1440 mins by LC-MS/MS analysis; assay type: ADME, organism-based; settings: in vivo
# [15] = Oral bioavailability in Sprague-Dawley rat at 20 mg/kg measured upto 1440 mins by LC-MS/MS analysis; assay type: ADME, organism-based; settings: in vivo
# [16] = Toxicity in BALB/c mouse assessed as effect on creatinine level at 30 mg/kg, ip measured after 3 days by biochemical analysis; assay type: organism-based; settings: in vivo, 72 h, time 3 day
# [17] = Toxicity in BALB/c nude mouse xenografted with human 22Rv1 cells assessed as reduction in body weight at 30 mg/kg, ip measured every 2 days for 28 days; assay type: organism-based, CWR22R; settings: in vivo, 672 h, time 28 day
# [18] = Half life in Sprague-Dawley rat at 5 mg/kg, iv measured upto 1440 mins by LC-MS/MS analysis; assay type: ADME, organism-based; settings: in vivo
# [19] = Volume of distribution at steady state in Sprague-Dawley rat at 20 mg/kg, po measured upto 1440 mins by LC-MS/MS analysis; assay type: ADME, organism-based; settings: in vivo, 24 h
# [20] = Toxicity in BALB/c mouse assessed as appearance of lesions in spleen at 30 mg/kg, ip measured after 3 days by H and E staining based analysis; assay type: organism-based; settings: in vivo, 72 h, time 3 day
# [21] = Volume of distribution at steady state in Sprague-Dawley rat at 20 mg/kg, ip measured upto 1440 mins by LC-MS/MS analysis; assay type: ADME, organism-based; settings: in vivo, 24 h
# [22] = Toxicity in BALB/c mouse assessed as appearance of lesions in heart at 30 mg/kg, ip measured after 3 days by H and E staining based analysis; assay type: organism-based; settings: in vivo, 72 h, time 3 day
# [23] = Toxicity in BALB/c mouse assessed as effect on BUN level at 30 mg/kg, ip measured after 3 days by biochemical analysis; assay type: organism-based; settings: in vivo, 72 h, time 3 day
# [24] = AUC (0 to infinity) in Sprague-Dawley rat at 20 mg/kg, ip measured upto 1440 mins by LC-MS/MS analysis; assay type: ADME, organism-based; settings: in vivo
# [25] = Bioavailability in Sprague-Dawley rat at 20 mg/kg, ip measured upto 1440 mins by LC-MS/MS analysis; assay type: ADME, organism-based; settings: in vivo
# [26] = Volume of distribution at steady state in Sprague-Dawley rat at 5 mg/kg, iv measured upto 1440 mins by LC-MS/MS analysis; assay type: ADME, organism-based; settings: in vivo, read-out: Vdss
# LNCaP [27] = test: cells; settings: Homo sapiens, 72 h
# Description: Cytotoxicity against androgen receptor dependent human LNCaP cells assessed as inhibition of cell growth incubated for 72 hrs by MTT assay
# DU-145 = test: cells; settings: Homo sapiens, DU-145, 72 h
# Description: Cytotoxicity against androgen receptor independent human DU-145 cells assessed as inhibition of cell growth incubated for 72 hrs by MTT assay
# LNCaP [28] = test: Antitumor activity against human LNCaP cells xenografted in BALB/c nude mouse assessed as tumor growth inhibition at 30 mg/kg, ip measured every 2 days for 28 days relative to control; settings: 672 h, read-out: TGI
# CWR22R = test: Antitumor activity against human 22Rv1 cells xenografted in BALB/c nude mouse assessed as tumor growth inhibition at 30 mg/kg, ip measured every 2 days for 28 days relative to control; settings: 22Rv1, 672 h, read-out: TGI
compound,measurement,setting,value
N#Cc1ccc(N2C(=O)CN(CCCN3CCCc4ccccc43)C2=S)cc1C(F)(F)F,Activity,[1],Non-Toxic
same,Activity,[2],Non-Toxic
same,clearance,[3],15.7 mL/min/kg
same,Cmax,[4],92.1 ng/mL
same,CL/F,[5],60.2 mL/min/kg
same,Activity,[6],Non-Toxic
same,AUC,[7],805.18 ng·h/mL
same,Activity,[8],Non-Toxic
same,Activity,[9],Non-Toxic
same,AUC(0-inf),[10],3500 ng·h/mL
same,Activity,[11],Non-Toxic
same,Activity,[12],Non-Toxic
same,CL,[13],84.8 mL/min/kg
same,half-life,[14],3.06 h
same,bioavailability,[15],5.74%
same,Activity,[16],Non-Toxic
same,Activity,[17],Non-Toxic
same,half-life,[18],5.02 h
same,Vdss,[19],16.72 L/kg
same,Activity,[20],Non-Toxic
same,Vdss,[21],8.77 L/kg
same,Activity,[22],Non-Toxic
same,Activity,[23],Non-Toxic
same,AUC(0-inf),[24],9160 ng·h/mL
same,bioavailability,[25],67.2%
same,Vd,[26],6.9 L/kg
CNC(=O)c1ccc(N2C(=S)N(c3ccc(C#N)c(C(F)(F)F)c3)C(=O)C2(C)C)cc1F [ENZALUTAMIDE],IC50,LNCaP [27],13.9 µM
same,IC50,DU-145,> 50 µM
same,inhibition in vivo at 30 mg/kg,LNCaP [28],41.5%
same,inhibition in vivo at 30 mg/kg,CWR22R,39.9%
